Experimental data as given in EP0326134A1, “4-Amino-2,3-disubstituted-6,7-dihydro-5H-1-pyridine derivatives, process for their preparation and medicaments containing them” (NAUCHNO-ISSLEDOVATELSKY INSTITUT TEKHNOLOGII I BEZOPASNOSTI …, priority 1988, dated 1989).
Where a name gives a salt, the structure may show the parent alone. Read-outs that look alike come from different tables or passages of the source.

Tests used:
[1] = Acute toxicity, single intraperitoneal injection, probit analysis (LD50); assay type: in vivo, Mäusen; details: mice, i.p.
From the text: Ihre akute Toxizität wurde an Mäusen (einmalige intraperitoneale Injektion) nach der Methode der Probit-Analyse nach Zichtfield, Wilcoxon, t949 untersucht. In Tabelle 2 sind die Parameter der akuten Toxizität (LDso) angegeben, die eine mäßige Toxizität der erfindungsgemäßen Verbindungen belegen.

[2] = Side effects and CNS/behaviour: tremor (TD50), sedative and m-cholinomimetic effects; assay type: in vivo; details: for selectivity ratio / TD50: in vivo; for selectivity ratio / Verhältnis TD50 zu ED50: ED50 = dose blocking the effect of Skopolamin in 50 % of the animals (passive avoidance, mice); for selectivity ratio: read-out: Verhältnis TD50 zu ED50; for TD50 / TD50 (Tremor): toxic dose causing tremor in 50 % of the animals
From the text: Von Interesse ist der Einfluß der erfindungsgemäßen Verbindungen auf das ZNS und das Verhalten der Tiere.

[3] = tested on: durch Skopolamin hervorgerufene Amnesie; assay: Dark avoidance assay (passive avoidance), scopolamine-induced amnesia; assay type: in vivo, Mäusen; details: for antiamnestische Wirkung: in words, compared with Amyridin; for Einfluß auf das Gedächtnis: Zahl der Tiere in %, bei denen die Skopolaminwirkung aufgehoben wurde: mice, compound s.c. 5 min before learning, Skopolamin i.p. 30 min before
Method: Die Mäuse wurden dabei in den hellen Abschnitt der Kammer gegeben, wonach die Latenzzeit für den Übertritt in die dunkle Kammer, in der die Tiere einem Stromschlag von 0,5 mA ausgesetzt waren, registriert wurde. Danach erhöhte sich die Latenzzeit für den Übertritt in den dunklen Abschnitt und verringerte sich die Aufenthaltsdauer. 30 Minuten vor dem Versuch wurden den Mäusen i.p. […] Gedächtnisstörungen hervorrufendes Skopolamin als Cholinblocker injiziert. Die erfindungsgemäßen Verbindungen wurden s.c. 5 Minuten vor dem Lernvorgang injiziert. Das Skopolamin verkürzt die Latenzzeit für den Übertritt in die dunkle Kammer, die erfindungsgemäßen Verbindungen stellen jedoch die Latenzzeitwerte wie bei der Kontrollgruppe wieder her oder bedingen ein geringfügiges Überschreiten dieser Werte (siehe Tabelle 2). Gleichzeitig wird die Aufenthaltsdauer der Tiere im dunklen Abschnitt der Kammer auf 36 bis 45 Hundertstel des Ausgangswerts verringert.

[4] = tested on: Nerven-Muskel-Präparat von Mäusen (n.peroneus-m.extensor digitorum longus); assay: Neuromuscular transmission in isolated nerve-muscle preparation (EPP, minEPP); details: for Stimulierung der Nerven-Muskelübertragung, in % der Amplitude: EPP: EPP = Endplattenpotential
From the text: Der Einfluß der Stoffe auf die Nerven-Muskei-Übertragung wurde am isolierten Nerven-Muskel-Präparat von Mäusen (n.peroneus-m.extensor digitorum longus) (s. Bhattacharyya B. et al. "Neuromuscular blocking action of two hemicholinium-3 analogs" Europ. J. Pharmac. 146, 155-165 /1988/) untersucht, das von Lilly-Lösung perfundiert wurde, durch die man ein Gemisch von 02 und C02 leitete. […] Das Endplattenpotential (EPP) und das Endplattenminiaturpotential (minEPP) wurden mit Hilfe eines Magnetografen aufgezeichnet und danach mit dem Computer ausgewertet. Ermittelt wurden die Frequenz (f), die Amplitude (A) und die Dauer (t) der minEPP und der EPP (s. Tabelle 2).

Uterus der Ratte = assay: Contractile activity of smooth muscle: rat uterus; details: n = 9; for activity at 100 µM: Konzentration 1.10^-4 Mol, read-out: Serotonin 1.10^-6 (Mol): Amplitude, % bezogen auf die Kontrolle
From the text: (§1) In Versuchen an glattmpskulären Organen (Uterus, Samenleiter der Ratte und Krummdarm des Meerschweinchens) wurden die Wirkung der erfindungsgemäßen Verbindungen auf die kontraktile Aktivität der glatten Muskeln und ihre Reaktionen auf den Einfluß von Acetylcholin, Serotonin, Adrenalin und KCI als Agonisten untersucht. Mit Hilfe eines Schreibers wurden die Amplitude und die Dauer der Kontraktion der glatten Muskeln unter Verwendung eines Geräts vom Typ Mechanstron-untersucht.

Samenleiter der Ratte = assay: Contractile activity of smooth muscle: rat vas deferens; details: Rattus norvegicus, Samenleiter der Ratte, n = 9, read-out: Adrenalin 1.10^-6: Amplitude, % bezogen auf d.Kontrolle; for activity at 100 µM: Konzentration 1.10^-4 Mol
From the text: as §1

[5] = target: T1, Acetylcholinesterase menschlicher Erythrozyten (Homo sapiens, UniProt P22303); assay: Acetylcholinesterase inhibition, spectrophotometric; assay type: biochemical; details: Acetylcholinesteraseinhibierung bei menschlichen Erythrozyten IK, (Mol), human erythrocyte enzyme
T1 construct: Acetylcholin-esteraseinhi-bierung bei menschlichen Erythrozyten; from tissue; host or cells: human erythrocytes
T1 sequence (P22303 other isoform, or with tags, fused parts or gaps): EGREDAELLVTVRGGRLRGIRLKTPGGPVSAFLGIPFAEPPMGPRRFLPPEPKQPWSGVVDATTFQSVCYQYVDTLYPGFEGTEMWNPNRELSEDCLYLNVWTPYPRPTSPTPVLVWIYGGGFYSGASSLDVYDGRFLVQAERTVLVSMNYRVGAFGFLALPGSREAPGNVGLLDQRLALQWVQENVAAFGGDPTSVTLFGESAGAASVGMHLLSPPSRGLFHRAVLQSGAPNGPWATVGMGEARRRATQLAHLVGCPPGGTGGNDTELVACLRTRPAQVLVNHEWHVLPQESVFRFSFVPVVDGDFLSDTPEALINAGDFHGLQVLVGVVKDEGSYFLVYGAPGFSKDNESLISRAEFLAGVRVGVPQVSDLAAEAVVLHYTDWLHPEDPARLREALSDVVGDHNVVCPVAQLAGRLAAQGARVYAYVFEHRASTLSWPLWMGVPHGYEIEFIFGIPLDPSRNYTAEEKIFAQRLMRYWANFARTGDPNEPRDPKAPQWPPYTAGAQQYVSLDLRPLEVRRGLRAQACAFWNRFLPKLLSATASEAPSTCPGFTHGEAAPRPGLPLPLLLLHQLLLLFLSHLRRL
From the text: Untersucht wurden die Wirkmechanismen der erfindungsgemäßen Verbindungen: • 1. Die Wirkung auf Acetylcholinesterase menschlicher Erythrozyten auf spektrofotometrischem Wege. • 2.

[6] = tested on: K -Durchlässigkeit der Membrane des Ranvier-Schnürringes; assay: K+ permeability of the node of Ranvier membrane, voltage clamp; set-up: species or system Frosches; details: node of Ranvier, frog sciatic nerve fibres, voltage clamp; concentration giving 50 % block of ion permeability; read-out: Blockierung der K^+-Durchlässigkeit der Membrane Ic50 (Mol)
From the text: (§2) Untersucht wurden die Wirkmechanismen der erfindungsgemäßen Verbindungen: • 1. Die Wirkung auf Acetylcholinesterase menschlicher Erythrozyten auf spektrofotometrischem Wege. • 2. Die Wirkung auf die K - und Na -Durchlässigkeit der Membrane des Ranvier-Schnürringes (s. Fox T.M. et al. "Modification of ionic membrane currrents of Ranvier nodes by UV-radiation under voltage clamp conditions", Experientia, 27, 1289-1290 /1971/ und Arhom P. et al. "Local anesthetics: effects on permeability properties of nodal membrane in myelynated nerve fibres from xenopus". Acta physiol. Scand. 91, 11-21 /1974/) der Nervenfasern des Hüftnervs des Frosches unter Anwendung der Methode der Messung der Membranspannung (Voltage-clampmethode) (s. Derksen H.E. "Axon membrane voltage fluctuations", Acta Physiol., Pharmacol Neer, 13, 373-466 /1965/).
(§3) Alle erfindungsgemäßen Verbindungen sind Blocker für die K^+-Durchlässigkeit der Membrane analog dem Amyridin. Die Salze der bicyclischen Basen blockieren jedoch stärker die Na -Durchlässigkeit der Membrane, was sich mit ihren sedativen und analgetischen Eigenschaften in Verbindung bringen läßt.

[7] = tested on: Na -Durchlässigkeit der Membrane des Ranvier-Schnürringes; assay: Na+ permeability of the node of Ranvier membrane, voltage clamp; set-up: species or system Frosches; details: node of Ranvier, frog sciatic nerve fibres, voltage clamp; concentration giving 50 % block of ion permeability; read-out: Blockierung der Na^+-Durchlässigkeit der Membrane Ic50 (Mol)
From the text: as §2, §3

[8] = mouse, in vivo, ip, read-out: LD50
[9] = Rattus norvegicus, Uterus der Ratte

| Structure (SMILES) | LD50 [1, 8] [mg/kg] | selectivity ratio [2] | TD50 [2] [mg/kg] | antiamnestische Wirkung [3] | Einfluß auf das Gedächtnis: Zahl der Tiere in %, bei denen die Skopolaminwirkung aufgehoben wurde [3] [%] | Stimulierung der Nerven-Muskelübertragung, in % der Amplitude: EPP [4] [%] | Stimulierung der Nerven-Muskelübertragung, in % der Amplitude: minEPP [4] [%] | activity at 100 µM (Uterus der Ratte; [9]) [%] | activity at 100 µM (Samenleiter der Ratte) [%] | Ki [5] [µM] | IC50 [6] [µM] | IC50 [7] [µM] | LD50 [1] [mg/kg] | Verhältnis TD50 zu ED50 [2] | TD50 (Tremor) [2] [mg/kg] | activity at 10 µM (Uterus der Ratte; Rattus norvegicus, Uterus der Ratte (as head prints), Konzentration 1.10^-5 Mol, ditto mark -"- repeats unverändert, read-out: Acetylcholin 1.10^-6 (Mol): Amplidude, % bezogen auf d. Kontrolle) [%] | activity at 10 µM (Samenleiter der Ratte; Konzentration 1.10^-5 Mol) [%] | Acetylcholin 1.10^-6 (Mol): Dauer, Min. (Uterus der Ratte; Uterus der Ratte (as head prints), Konzentration 1.10^-5 Mol) [Min.] | Serotonin 1.10^-6 (Mol): Dauer, Min. (Uterus der Ratte; Uterus der Ratte, Konzentration 1.10^-5 Mol) [Min.] |
| --- | --- | --- | --- | --- | --- | --- | --- | --- | --- | --- | --- | --- | --- | --- | --- | --- | --- | --- | --- |
| CNc1c(C)c(C)nc2c1CCC2 [Verbindung 19, 2,3-Dimethy)-4-methy)amino-6,7-dihydro-5H-1-pyrindinhydrat] | 16 | 4 | 12 | antiamnestische Wirkung, welche die von Amyridin etwas übertraf | 70 | 28 | 56 | 120 | 115 | 6.7 | 1800 | 2500 |  |  |  |  |  |  |  |
| CCNc1c(C)c(C)nc2c1CCC2 [Verbindung 20, 2,3-Dimethyl-4-ethylamino-6,7-dihydro-5H-1-pyrindin] | 18 | 3.8 | 10 | antiamnestische Wirkung, welche die von Amyridin etwas übertraf | 65 | 30 | 58 | 125 | 120 | 7 | 2200 | 2800 |  |  |  |  |  |  |  |
| CCc1c(C)nc2c(c1N)CCC2 [Verbindung 21, 2-Methyl-3-ethyl-4-amino-6,7-dihydro-5H-1-pyrindinhydrat] | 30 | 3.8 | 10 | antiamnestische Wirkung, welche die von Amyridin etwas übertraf | 68 | 25 | 58 | 118 | 115 | 7 | 3500 | 3200 |  |  |  |  |  |  |  |
| CCCc1c(C)nc2c(c1N)CCC2 [Verbindung 24] | 30 | 3 | 10 |  | 68 | 25 | 54 | 119 | 120 | 7.5 | 4000 | 4200 |  |  |  |  |  |  |  |
| CCc1nc2c(c(N)c1C)CCC2 [Verbindung 27, 2-Ethyl-3-methyl-4-amino-6,7-dihydro-5H-1-pyrindinhydrat] | 30 | 10 | 19 | antiamnestische Wirkung, welche die von Amyridin etwas übertraf | 60 | 23 | 45 | 125 | 126 | 3.8 | 150 | 380 |  |  |  |  |  |  |  |
| CCc1nc2c(c(N)c1C)CCC2 [Verbindung 29] |  |  |  |  | 70 | 18 | 40 |  |  | 6 | 200 | 300 | 35 | 12 | 22 |  |  |  |  |
| CCc1nc2c(c(N)c1C)CCC2 [Verbindung 30] |  |  |  |  | 75 | 24 | 45 |  |  | 5.1 | 280 | 350 | 40 | 11 | 22 |  |  |  |  |
| Cc1nc2c(c(N)c1-c1ccccc1)CCC2 [Verbindung 33] |  |  |  |  | 55 | 20 | 42 | 140 | 128 | 48 | 6500 | 5500 | 25 | 2,4 | 15 |  |  |  |  |
| Nc1c2c(nc3c1CCC3)CCC2 [Verbindung 36, 8-Amino-1,2,3,5,6,7-hexahydro-1-cyclopenta[b]pyrindin-hydrochlorid] | 36 | 7.5 | 15 |  | 65 | 20 | 60 |  |  | 0.11 | 420 | 5200 |  |  |  | 140 | 160 |  |  |
| Nc1c2c(nc3c1CCC3)CCC2 [Verbindung 37, 8-Amino-1,2,3,5,6,7-hexahydro-1-cyclopenta[b]pyrindinperchlorat] |  |  |  |  | 68 | 30 | 66 |  |  | 0.15 | 450 | 4200 | 38 | 8,2 | 18 |  |  |  |  |
| Nc1c2c(nc3c1CCC3)CCCCC2 [Verbindung 39] |  |  |  |  | 72 | 25 | 60 |  |  | 0.56 | 480 | 5000 | 50 | 7,2 | 18 |  |  | 22±0.6 | 28±0.5 |
